In patent US10081624B2, “Heterocyclic compound” (Takeda Pharmaceutical Company Limited, priority 2014, dated 2018):
Entries after “also recorded” stand apart in the source; their conditions may differ.

Legend:
[1] = system: acetylated tubulin; test: Measurement of acetylated tubulin in spleen after oral administration (Western blotting); type: in vivo; settings: BALE/c mice, female, 30 mg/kg orally
Method: Compound A (compound of Example 36) and compound B (compound of Example 37) were each orally administered to BALE/c mice (female, Charles River Japan, 8-weeks old when used) at a dose of 30 mg/kg. Compound A and compound B were each suspended in 0.5% methyl cellulose solution, and the suspensions were each orally administered at a dose of 10 mL/kg. For control group, 0.5% methyl cellulose solution was administered. After administration, a part (about 30 mg) of the spleen was recovered into tube containing beads (Lysing Matrix I, Cat. 6918-100, MP Biomedicals), and cryopreserved at −80° C. until used.
0.5 mL RIPA buffer containing protease inhibitor (Cat. 25955-11, Nacalai tesque) was added to the spleen placed in Lysing Matrix I tube, and the spleen was crushed over 20 sec by FastPrep-24. The sample tube was centrifuged (15,000 rpm, 4° C.,) for 5 min, and the supernatant was transferred to another tube. […] The protein amount of the sample was measured using BCA protein assay kit (Cat. 23227, Pierce). […]
The membrane was immersed in blocking reagent (Cat. NYPBR01, TOYOBO) at room temperature for 1 hr, washed, and reacted with primary antibody overnight at 4° C. After washed, the membrane was reacted with secondary antibody at room temperature for 1 hr, and immersed in ECL prime detecting solution (Cat. RPN2232, GE), and the chemiluminescence was detected by luminoimage analyzer LAS3000. […]

[2] = biological target: T1, HDAC1 enzyme (Homo sapiens, UniProt Q13547); test: HDAC1 enzyme inhibitory assay (HDAC-Glo I/II Assay kit); type: biochemical; settings: 1 μM test compound; for inhibition at 1 µM: read-out: HDAC1 inhibitory rate (%) (1 μM)
T1 construct: prepared by transducing full length HDAC1 and HDAC6 genes into Sf-9 insect cells; GST; purchased SignalChem; host or cells: Sf-9 insect cells
In short: (§1)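 Luminescent HDAC-Glo I/II read-out after 20 min room-temperature reaction with substrate-developer, following a 60 min room-temperature enzyme–compound preincubation. Enzymes: full-length HDAC1 or HDAC6 from Sf-9 cells, GST-purified; buffer pH 7.5 Tris with NaCl, glutathione, 0.01% Tween-20. No-enzyme wells defined 100% inhibition.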

[3] = biological target: T2, HDAC6 enzyme (Homo sapiens, UniProt Q9UBN7); test: HDAC6 enzyme inhibitory assay (HDAC-Glo I/II Assay kit); type: biochemical; settings: 1 μM test compound; for inhibition at 1 µM: read-out: HDAC6 inhibitory rate (%) (1 μM)
T2 construct: prepared by transducing full length HDAC1 and HDAC6 genes into Sf-9 insect cells; GST; purchased SignalChem; host or cells: Sf-9 insect cells
T2 sequence (Q9UBN7 1-1215): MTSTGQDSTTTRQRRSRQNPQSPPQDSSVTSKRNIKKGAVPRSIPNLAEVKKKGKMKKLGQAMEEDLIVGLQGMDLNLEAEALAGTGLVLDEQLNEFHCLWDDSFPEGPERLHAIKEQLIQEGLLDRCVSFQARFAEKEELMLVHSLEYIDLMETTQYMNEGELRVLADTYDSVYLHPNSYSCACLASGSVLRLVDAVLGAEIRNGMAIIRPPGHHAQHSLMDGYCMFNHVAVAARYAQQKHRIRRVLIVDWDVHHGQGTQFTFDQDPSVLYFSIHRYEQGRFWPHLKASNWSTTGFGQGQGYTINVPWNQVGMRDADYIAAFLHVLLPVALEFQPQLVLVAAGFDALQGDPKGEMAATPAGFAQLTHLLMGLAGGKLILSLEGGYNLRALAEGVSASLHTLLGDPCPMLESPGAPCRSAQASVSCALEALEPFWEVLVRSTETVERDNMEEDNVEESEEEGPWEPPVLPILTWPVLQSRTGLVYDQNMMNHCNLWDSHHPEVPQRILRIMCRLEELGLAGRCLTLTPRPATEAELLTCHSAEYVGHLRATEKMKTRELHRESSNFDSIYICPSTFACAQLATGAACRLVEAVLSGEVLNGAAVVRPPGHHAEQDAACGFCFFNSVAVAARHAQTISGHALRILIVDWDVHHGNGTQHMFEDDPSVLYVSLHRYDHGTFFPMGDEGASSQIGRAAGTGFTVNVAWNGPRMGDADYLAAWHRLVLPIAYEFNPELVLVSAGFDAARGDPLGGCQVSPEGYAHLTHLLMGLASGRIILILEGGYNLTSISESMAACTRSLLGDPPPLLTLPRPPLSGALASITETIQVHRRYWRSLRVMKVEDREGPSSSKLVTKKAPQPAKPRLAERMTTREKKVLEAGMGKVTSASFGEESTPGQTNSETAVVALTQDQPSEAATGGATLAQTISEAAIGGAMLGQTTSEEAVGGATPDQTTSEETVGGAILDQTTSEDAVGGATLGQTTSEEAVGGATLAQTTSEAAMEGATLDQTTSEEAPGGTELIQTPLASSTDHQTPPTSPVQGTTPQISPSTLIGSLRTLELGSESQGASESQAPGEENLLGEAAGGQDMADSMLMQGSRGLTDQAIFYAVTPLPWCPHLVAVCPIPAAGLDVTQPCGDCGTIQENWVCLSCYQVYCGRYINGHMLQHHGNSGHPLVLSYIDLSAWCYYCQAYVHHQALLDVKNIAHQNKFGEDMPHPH
In short: as §1

T1 sequence (Q13547 whole entry): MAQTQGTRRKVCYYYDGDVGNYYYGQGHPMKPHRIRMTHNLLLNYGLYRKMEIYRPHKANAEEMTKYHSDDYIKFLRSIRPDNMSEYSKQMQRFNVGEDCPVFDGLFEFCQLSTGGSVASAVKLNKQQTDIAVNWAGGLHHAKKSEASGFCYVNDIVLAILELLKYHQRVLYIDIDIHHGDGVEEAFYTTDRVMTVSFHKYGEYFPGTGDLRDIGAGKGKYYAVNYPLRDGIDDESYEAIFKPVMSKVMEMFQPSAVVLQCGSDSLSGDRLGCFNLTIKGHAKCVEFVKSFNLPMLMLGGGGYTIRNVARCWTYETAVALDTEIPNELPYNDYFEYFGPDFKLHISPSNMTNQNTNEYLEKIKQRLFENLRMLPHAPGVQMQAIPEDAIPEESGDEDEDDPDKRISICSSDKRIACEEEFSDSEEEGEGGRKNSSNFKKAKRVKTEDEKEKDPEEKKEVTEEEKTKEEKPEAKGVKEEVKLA

Compound	inhibition at 1 µM [2] [%]	inhibition at 1 µM [3] [%]	HDAC1 inhibitory rate (%) (1 μM) ([2]; 1 µM)	HDAC6 inhibitory rate (%) (1 μM) [3]	acetylation of tubulin in spleen (protein expression level of acetylated tubulin, fold increase relative to 0.5% methyl cellulose solution administration group) [1]
O=C(NC[C@H]1COCCN1C(=O)c1cc(Cl)cc(Cl)c1)c1ccc(-c2noc(C(F)(F)F)n2)cc1 [compound B, N-(((3S)-4-(3,5-dichlorobenzoyl)morpholin-3-yl)methyl)-4-(5-(trifluoromethyl)-1,2,4-oxadiazol-3-yl)benzamide]					increase in acetylated tubulin; also recorded: increased most acetylation of tubulin in spleen 8 hr after administration
O=C(NC[C@H]1COCCN1C(=O)c1ccccc1)c1ccc(-c2noc(C(F)(F)F)n2)cc1 [compound A, N-(((3S)-4-benzoylmorpholin-3-yl)methyl)-4-(5-(trifluoromethyl)-1,2,4-oxadiazol-3-yl)benzamide]					increase in acetylated tubulin; also recorded: increased most acetylation of tubulin in spleen 8 hr after administration
O=C(NCC1COCCN1C(=O)C1(c2ccccc2)COC1)c1ccc(-c2noc(C(F)(F)F)n2)cc1 (stereo in doubt) [Example 103, N-(((3S)-4-((3-phenyloxetan-3-yl)carbonyl)morpholin-3-yl)methyl)-4-(5-(trifluoromethyl)-1,2,4-oxadiazol-3-yl)benzamide]	35	98			
O=C(NCC1COCCN1C(=O)c1ccccc1)c1ccc(-c2noc(C(F)(F)F)n2)cn1 (centres unmarked) [Example 181, N-((4-benzoylmorpholin-3-yl)methyl)-5-(5-(trifluoromethyl)-1,2,4-oxadiazol-3-yl)pyridine-2-carboxamide]	29	97			
O=C(NC[C@H]1COCCN1C(=O)N1CCC(CCO)C1)c1ccc(-c2noc(C(F)(F)F)n2)cc1 (stereo partly drawn) [Example 301, N-(((3S)-4-((3-(2-hydroxyethyl)pyrrolidin-1-yl)carbonyl)morpholin-3-yl)methyl)-4-(5-(trifluoromethyl)-1,2,4-oxadiazol-3-yl)benzamide]			3	92	
Cc1nonc1C(=O)N1CCOC[C@@H]1CNC(=O)c1ccc(-c2noc(C(F)(F)F)n2)cn1 [Example 194, N-(((3S)-4-((4-methyl-1,2,5-oxadiazol-3-yl)carbonyl)morpholin-3-yl)methyl)-5-(5-(trifluoromethyl)-1,2,4-oxadiazol-3-yl)pyridine-2-carboxamide]	36	97			
Cc1oncc1C(=O)N1CCOC[C@@H]1CNC(=O)c1ccc(-c2noc(C(F)(F)F)n2)cn1 [Example 193, N-(((3S)-4-((5-methyl-1,2-oxazol-4-yl)carbonyl)morpholin-3-yl)methyl)-5-(5-(trifluoromethyl)-1,2,4-oxadiazol-3-yl)pyridine-2-carboxamide]	33	97			
NC(=O)[C@@H]1CCCN1C(=O)N1CCOC[C@@H]1CNC(=O)c1ccc(-c2noc(C(F)(F)F)n2)cc1 [Example 283, 1-(((3S)-3-(((4-(5-(trifluoromethyl)-1,2,4-oxadiazol-3-yl)benzoyl)amino)methyl)morpholin-4-yl)carbonyl)-L-prolinamide]	-1	73			

The next lines start with results.

inhibition at 1 µM [2] [%]	inhibition at 1 µM [3] [%]	HDAC1 inhibitory rate (%) (1 μM) ([2]; 1 µM)	HDAC6 inhibitory rate (%) (1 μM) [3]	Compound	acetylation of tubulin in spleen (protein expression level of acetylated tubulin, fold increase relative to 0.5% methyl cellulose solution administration group) [1]
33	97			O=C(NCC1COCCN1C(=O)c1ccc(Cl)cc1)c1ccc(-c2noc(C(F)(F)F)n2)cc1 (centres unmarked) [Example 8]	
19	100			O=C(NC[C@@H]1COCCN1C(=O)c1cc2ccccc2o1)c1ccc(-c2noc(C(F)(F)F)n2)cc1 [Example 125, N-(((3R)-4-(1-benzofuran-2-ylcarbonyl)morpholin-3-yl)methyl)-4-(5-(trifluoromethyl)-1,2,4-oxadiazol-3-yl)benzamide]	
25			99	N#Cc1ccc(C(=O)N2CCOC[C@@H]2CNC(=O)c2ccc(-c3noc(C(F)(F)F)n3)cc2)cc1 [Example 45, N-(((3S)-4-(4-cyanobenzoyl)morpholin-3-yl)methyl)-4-(5-(trifluoromethyl)-1,2,4-oxadiazol-3-yl)benzamide]	
